# Measured values as given in ChEMBL document CHEMBL5465560, “Selectivity Literature for EUbOPEN Chemogenomic Library” (2024).
# Tests used:
# [1] = target: T1, Serine/threonine-protein kinase BRSK2 (Homo sapiens) (UniProt Q8IWQ3); experiment: Selectivity interaction (KinomeScan (DiscoverX)) EUB0000229b BRSK2; conditions: at 10 µM
# T1 sequence (whole entry): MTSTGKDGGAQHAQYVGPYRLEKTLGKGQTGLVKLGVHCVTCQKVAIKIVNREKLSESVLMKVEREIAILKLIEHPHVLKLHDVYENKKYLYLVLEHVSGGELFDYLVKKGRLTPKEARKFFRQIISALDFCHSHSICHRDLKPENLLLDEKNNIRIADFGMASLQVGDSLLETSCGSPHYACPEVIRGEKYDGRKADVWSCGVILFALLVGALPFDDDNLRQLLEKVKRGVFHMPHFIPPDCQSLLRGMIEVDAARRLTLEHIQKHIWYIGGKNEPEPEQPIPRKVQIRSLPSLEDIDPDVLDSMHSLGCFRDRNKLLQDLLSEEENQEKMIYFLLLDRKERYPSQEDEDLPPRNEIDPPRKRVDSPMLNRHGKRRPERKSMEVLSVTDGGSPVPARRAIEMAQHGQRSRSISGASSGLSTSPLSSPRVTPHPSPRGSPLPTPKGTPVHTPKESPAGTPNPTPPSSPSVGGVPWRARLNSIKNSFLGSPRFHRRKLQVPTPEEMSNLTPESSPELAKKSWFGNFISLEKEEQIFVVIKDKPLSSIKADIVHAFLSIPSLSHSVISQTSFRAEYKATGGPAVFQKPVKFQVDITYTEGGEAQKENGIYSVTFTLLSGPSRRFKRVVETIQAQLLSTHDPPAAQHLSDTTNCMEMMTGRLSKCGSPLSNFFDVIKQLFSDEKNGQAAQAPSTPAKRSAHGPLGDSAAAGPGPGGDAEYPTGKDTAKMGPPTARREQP
# [2] = target: SRSF protein kinase 3 (Homo sapiens) (UniProt Q9UPE1); experiment: Selectivity interaction (KinomeScan (DiscoverX)) EUB0000229b SRPK3; conditions: at 10 µM
# SRSF protein kinase 3 (Homo sapiens), sequence (Q9UPE1 whole entry): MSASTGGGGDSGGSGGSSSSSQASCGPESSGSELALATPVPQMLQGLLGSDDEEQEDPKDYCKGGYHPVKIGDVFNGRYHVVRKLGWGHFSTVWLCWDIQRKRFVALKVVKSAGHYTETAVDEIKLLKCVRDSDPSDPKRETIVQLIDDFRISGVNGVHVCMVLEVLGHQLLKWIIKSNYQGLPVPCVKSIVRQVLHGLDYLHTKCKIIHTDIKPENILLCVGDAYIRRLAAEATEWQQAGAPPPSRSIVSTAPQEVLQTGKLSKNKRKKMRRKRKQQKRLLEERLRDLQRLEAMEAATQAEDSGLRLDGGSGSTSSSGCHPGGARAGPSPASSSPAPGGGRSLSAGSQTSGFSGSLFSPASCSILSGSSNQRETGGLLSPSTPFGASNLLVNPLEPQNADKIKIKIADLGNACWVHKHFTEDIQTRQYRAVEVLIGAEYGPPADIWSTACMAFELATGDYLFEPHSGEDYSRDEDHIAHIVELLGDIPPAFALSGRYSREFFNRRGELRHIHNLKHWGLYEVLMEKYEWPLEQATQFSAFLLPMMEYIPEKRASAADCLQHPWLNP
# [3] = target: T2, Serine/threonine-protein kinase haspin (Homo sapiens) (UniProt Q8TF76); experiment: Selectivity interaction (Kinase panel (DSF assay)) EUB0001559a GSG2
# T2 sequence (whole entry): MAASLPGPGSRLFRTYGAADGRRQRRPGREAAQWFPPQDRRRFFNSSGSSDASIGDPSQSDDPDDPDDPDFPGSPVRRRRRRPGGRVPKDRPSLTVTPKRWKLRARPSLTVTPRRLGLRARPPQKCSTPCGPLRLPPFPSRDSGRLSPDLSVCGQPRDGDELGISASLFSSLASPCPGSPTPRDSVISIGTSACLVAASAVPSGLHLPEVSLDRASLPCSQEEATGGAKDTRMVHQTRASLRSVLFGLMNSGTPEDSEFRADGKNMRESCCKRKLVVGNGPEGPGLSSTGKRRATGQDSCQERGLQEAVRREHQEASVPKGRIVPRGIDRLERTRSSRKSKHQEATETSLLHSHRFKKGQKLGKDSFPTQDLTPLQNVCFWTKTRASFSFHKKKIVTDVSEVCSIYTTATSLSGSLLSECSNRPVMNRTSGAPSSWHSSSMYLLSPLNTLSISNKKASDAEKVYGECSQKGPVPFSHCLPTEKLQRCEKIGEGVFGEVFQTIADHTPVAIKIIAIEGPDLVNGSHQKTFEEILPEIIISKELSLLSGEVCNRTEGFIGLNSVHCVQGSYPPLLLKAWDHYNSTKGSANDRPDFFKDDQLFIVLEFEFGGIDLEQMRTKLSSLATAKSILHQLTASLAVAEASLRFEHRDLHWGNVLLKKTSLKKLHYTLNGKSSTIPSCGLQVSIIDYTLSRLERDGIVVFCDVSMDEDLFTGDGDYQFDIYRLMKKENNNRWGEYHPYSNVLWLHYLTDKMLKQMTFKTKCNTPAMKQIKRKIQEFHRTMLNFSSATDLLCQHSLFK
# [4] = target: Casein kinase I isoform alpha (Homo sapiens, UniProt P48729); experiment: Selectivity interaction (Kinase panel (Z-LYTE Assay)) EUB0001632a CSNK1A1; conditions: at 10 µM
# Casein kinase I isoform alpha, sequence (P48729 2-337 limits assumed): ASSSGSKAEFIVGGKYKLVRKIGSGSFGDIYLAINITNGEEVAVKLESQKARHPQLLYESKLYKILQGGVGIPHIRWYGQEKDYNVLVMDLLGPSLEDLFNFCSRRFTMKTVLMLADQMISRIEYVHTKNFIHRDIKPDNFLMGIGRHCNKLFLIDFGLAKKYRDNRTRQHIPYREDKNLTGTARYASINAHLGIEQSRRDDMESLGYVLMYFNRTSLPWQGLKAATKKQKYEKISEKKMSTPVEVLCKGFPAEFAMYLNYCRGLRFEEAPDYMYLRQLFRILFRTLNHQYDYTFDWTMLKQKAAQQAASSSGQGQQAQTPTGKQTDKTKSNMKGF
# [5] = target: T3, Serine/threonine-protein kinase Sgk2 (Homo sapiens) (UniProt Q9HBY8); experiment: Selectivity interaction (SelectScreen profiling (Invitrogen)) EUB0000607a SGK2; conditions: at 2 µM
# T3 sequence (whole entry): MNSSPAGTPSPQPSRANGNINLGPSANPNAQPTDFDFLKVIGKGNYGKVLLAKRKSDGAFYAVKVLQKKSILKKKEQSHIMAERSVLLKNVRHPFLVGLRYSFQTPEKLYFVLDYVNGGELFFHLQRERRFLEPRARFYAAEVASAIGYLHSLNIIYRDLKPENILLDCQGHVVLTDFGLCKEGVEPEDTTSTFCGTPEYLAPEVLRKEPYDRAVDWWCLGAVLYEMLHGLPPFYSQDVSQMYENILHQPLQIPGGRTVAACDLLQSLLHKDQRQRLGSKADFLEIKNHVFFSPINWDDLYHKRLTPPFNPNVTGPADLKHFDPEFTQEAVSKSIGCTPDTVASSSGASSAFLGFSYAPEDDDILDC
# [6] = target: Phosphatidylinositol 4-kinase beta (Homo sapiens, UniProt Q9UBF8); experiment: Selectivity interaction (ActivX KiNativ screen (kinase selectivity in THP-1 cell lysates)) EUB0000639a PI4KB; assay type: subcellular; conditions: lysate, at 5 µM
# Phosphatidylinositol 4-kinase beta, sequence (Q9UBF8 2-816 limits assumed): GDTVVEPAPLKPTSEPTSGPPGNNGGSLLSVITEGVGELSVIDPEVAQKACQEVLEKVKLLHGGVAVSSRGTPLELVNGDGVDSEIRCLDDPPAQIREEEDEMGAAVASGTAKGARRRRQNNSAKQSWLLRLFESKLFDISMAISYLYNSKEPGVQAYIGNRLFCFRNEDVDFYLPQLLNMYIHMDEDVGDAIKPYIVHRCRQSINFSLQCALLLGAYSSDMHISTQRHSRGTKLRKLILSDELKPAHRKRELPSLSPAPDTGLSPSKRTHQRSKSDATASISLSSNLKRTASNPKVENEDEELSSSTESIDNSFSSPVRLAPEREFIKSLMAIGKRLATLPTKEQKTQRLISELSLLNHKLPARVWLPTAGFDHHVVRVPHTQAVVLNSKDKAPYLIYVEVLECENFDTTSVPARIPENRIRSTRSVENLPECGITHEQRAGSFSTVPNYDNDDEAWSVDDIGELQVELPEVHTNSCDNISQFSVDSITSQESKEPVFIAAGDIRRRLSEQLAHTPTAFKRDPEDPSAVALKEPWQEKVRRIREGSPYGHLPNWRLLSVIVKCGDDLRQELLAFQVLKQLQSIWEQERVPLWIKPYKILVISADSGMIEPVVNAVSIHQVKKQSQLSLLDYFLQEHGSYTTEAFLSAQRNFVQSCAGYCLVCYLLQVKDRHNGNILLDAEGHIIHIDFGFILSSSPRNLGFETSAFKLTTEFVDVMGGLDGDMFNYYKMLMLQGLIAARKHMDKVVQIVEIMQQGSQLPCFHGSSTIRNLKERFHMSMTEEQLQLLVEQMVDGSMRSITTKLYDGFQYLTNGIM
# [7] = target: T4, Serine/threonine-protein kinase Chk1 (Homo sapiens) (UniProt O14757); experiment: Selectivity interaction (KinomeScan (DiscoverX)) EUB0000655a CHEK1; conditions: at 10 µM
# T4 sequence (whole entry): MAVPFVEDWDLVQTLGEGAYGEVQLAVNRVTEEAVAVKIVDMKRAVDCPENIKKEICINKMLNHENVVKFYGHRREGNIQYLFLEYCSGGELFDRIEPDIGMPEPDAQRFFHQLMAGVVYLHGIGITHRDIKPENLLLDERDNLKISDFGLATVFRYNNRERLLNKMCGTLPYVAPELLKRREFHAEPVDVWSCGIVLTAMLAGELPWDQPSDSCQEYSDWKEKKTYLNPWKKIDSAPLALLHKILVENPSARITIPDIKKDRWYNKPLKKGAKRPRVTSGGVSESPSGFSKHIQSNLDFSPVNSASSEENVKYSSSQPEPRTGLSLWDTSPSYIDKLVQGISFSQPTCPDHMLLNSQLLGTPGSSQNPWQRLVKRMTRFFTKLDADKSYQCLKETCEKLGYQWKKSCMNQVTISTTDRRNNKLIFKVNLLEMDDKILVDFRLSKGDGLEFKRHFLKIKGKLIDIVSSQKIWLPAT
# [8] = target: Myosin light chain kinase 2, skeletal/cardiac muscle (Homo sapiens) (UniProt Q9H1R3); experiment: Selectivity interaction (KinomeScan (DiscoverX)) EUB0000092b MYLK2; conditions: at 10 µM
# Myosin light chain kinase 2, skeletal/cardiac muscle (Homo sapiens), sequence (Q9H1R3 whole entry): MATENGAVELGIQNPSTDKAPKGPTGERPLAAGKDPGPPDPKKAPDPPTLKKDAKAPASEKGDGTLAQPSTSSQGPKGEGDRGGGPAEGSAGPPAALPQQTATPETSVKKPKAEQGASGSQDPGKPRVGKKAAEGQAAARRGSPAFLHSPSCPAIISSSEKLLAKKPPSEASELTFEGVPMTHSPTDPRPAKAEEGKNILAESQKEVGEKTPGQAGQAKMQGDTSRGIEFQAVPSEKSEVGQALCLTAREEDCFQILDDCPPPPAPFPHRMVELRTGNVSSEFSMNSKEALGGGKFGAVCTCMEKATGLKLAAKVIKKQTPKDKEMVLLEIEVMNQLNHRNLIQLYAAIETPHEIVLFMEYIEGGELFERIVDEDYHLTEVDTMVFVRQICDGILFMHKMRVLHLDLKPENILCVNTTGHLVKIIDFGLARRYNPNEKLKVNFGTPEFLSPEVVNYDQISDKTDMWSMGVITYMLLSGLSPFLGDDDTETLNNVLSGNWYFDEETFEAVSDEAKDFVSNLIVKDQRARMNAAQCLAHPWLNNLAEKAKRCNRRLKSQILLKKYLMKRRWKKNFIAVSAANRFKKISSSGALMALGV
smiles,measurement,setting,value
COc1cc(N(C)c2ccnc3ccc(C(F)(F)F)cc23)cc(OC)c1OC,% binding,[1],90%
same,% binding,[2],86%
CN(C(=O)c1cnn2cccnc12)c1cc2c(cc1N1CCOCC1)C(=O)N(C[C@@H](F)C(C)(C)O)C2,dTM,[3],1.8 K
Cn1cc(-n2cnc3c(NCc4nc5cc(Cl)c(Cl)cc5[nH]4)nc(N4CCOCC4)nc32)cn1,% of control,[4],4.57%
CNC(=O)Nc1ccc(-c2nc(N3CC4CCC(C3)O4)c3cnn(C4CCC5(CC4)OCCO5)c3n2)cc1,% of inhibition,[5],5%
CC[C@@H]1[C@H](F)C(=O)N[C@@H]1COc1nccc2cc(C(N)=O)c(OC)cc12 [ZIMLOVISERTIB],% of inhibition,[6],5.2%
CN(C)CCOc1ccc(-c2nc(-c3ccncc3)c(-c3ccc4c(c3)CC/C4=N\O)[nH]2)cc1,% of control,[7],80%
CCC(=O)N1CCN(c2ccc(-n3c(=O)ccc4cnc5ccc(-c6cnc7ccccc7c6)cc5c43)cc2C(F)(F)F)CC1,% of control,[8],40%
